# Data from ChEMBL document CHEMBL1201862, “PubChem BioAssay data set” (2004).
#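 A five-concentration, 48-hour dose response in 96-well plates underlies each endpoint, interpolated linearly between surrounding concentrations. GI50 is the concentration that inhibits growth by half.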 The source made the active and inactive calls. Rule as the data show it: active = GI50 up to about 1.1 µM and inactive = higher.
# Assays:
# Assay in all cases: NCI tumour cell line growth inhibition, 48 h
# LOX IMVI = system: LOX IMVI
# M14 = system: M14
# NCI-H460 = system: NCI-H460
# OVCAR-8 = system: OVCAR-8
# Malme-3M = system: Malme-3M
# HL-60 = system: HL-60
# MDA-N = system: MDA-N
# OVCAR-5 = system: OVCAR-5
# OVCAR-3 = system: OVCAR-3
# HCC 2998 = system: HCC 2998
# UACC-257 = system: UACC-257
# NCI-H226 = system: NCI-H226
# TK-10 = system: TK-10
# NCI-H23 = system: NCI-H23
# HCT-15 = system: HCT-15
# SK-MEL-2 = system: SK-MEL-2
# MCF7 = system: MCF7
# A498 = system: A498
# RXF 393 = system: RXF 393
# RPMI-8226 = system: RPMI-8226
SMILES,GI50 (LOX IMVI),GI50 (M14),GI50 (NCI-H460),GI50 (OVCAR-8),GI50 (Malme-3M),GI50 (HL-60),GI50 (MDA-N),GI50 (OVCAR-5),GI50 (OVCAR-3),GI50 (HCC 2998),GI50 (UACC-257),GI50 (NCI-H226),GI50 (TK-10),GI50 (NCI-H23),GI50 (HCT-15) [µM],GI50 (SK-MEL-2),GI50 (MCF7),GI50 (A498),GI50 (RXF 393),GI50 (RPMI-8226)
CC1C(NNc2ccccc2)Oc2cc3c(cc2C1c1ccccc1O)OCO3 (stereo not given),12.5 µM (inactive),1.93 µM (inactive),2.81 µM (inactive),10 µM (inactive),3.47 µM (inactive),4.01 µM (inactive),4.06 µM (inactive),4.61 µM (inactive),11.8 µM (inactive),4.56 µM (inactive),6.89 µM (inactive),12.8 µM (inactive),4.81 µM (inactive),12.8 µM (inactive),1.7,10.9 µM (inactive),3.94 µM (inactive),15.7 µM (inactive),15.7 µM (inactive),4.07 µM (inactive)
O=[As]O,> 47.9 µM (inactive),> 50.5 µM (inactive),> 100 µM (inactive),> 43.8 µM (inactive),25.3 µM (inactive),9.82 µM (inactive),> 100 µM (inactive),> 100 µM (inactive),> 45.7 µM (inactive),> 100 µM (inactive),> 48.6 µM (inactive),> 48.3 µM (inactive),> 100 µM (inactive),> 48.3 µM (inactive),> 52.5,> 59.6 µM (inactive),28.6 µM (inactive),> 74.6 µM (inactive),> 32.9 µM (inactive),> 40.5 µM (inactive)
CCc1ccc(/C=C\c2cc(OC)c(OC)c(OC)c2)cc1,0.0132 µM (active),0.0502 µM (active),0.0235 µM (active),0.0456 µM (active),0.124 µM (active),0.0053 µM (active),0.00168 µM (active),0.391 µM (active),0.00843 µM (active),0.0492 µM (active),0.0268 µM (active),0.024 µM (active),0.337 µM (active),0.0461 µM (active),0.0449,0.112 µM (active),0.0375 µM (active),0.014 µM (active),0.00908 µM (active),0.0127 µM (active)
